Reference: patent US12303513B2, “Methods and compositions to treat cancer” (Children's Hospital Medical Center, priority 2016, dated 2025)
Entries after “also recorded” stand apart in the source; their conditions may differ.

What was measured:
[1] = system: MSTO-211H mesothelioma cells; test: Growth inhibition by iMDK combined with ABT263 (FIG. 5); type: cell-based, human; details: 48 hours, ABT263 plus iMDK versus each drug alone
Protocol: FIG. 5. ABT263 enhanced iMDK-mediated suppression of cell proliferation in MSTO-211H mesothelioma cells. […] Cell lines: The human malignant pulmonary mesothelioma cells MSTO-211H, H2452, H2052, H28 MESO-1 and MESO-4 were grown in RPMI 1640 supplemented with 10% heat-inactivated fetal bovine serum. The human pulmonary adenocarcinoma cells: H441 and the human embryonic kidney cells: HEK293 were grown in high glucose Dulbecco's modified Eagle supplemented with 10% heat-inactivated fetal bovine serum. All cell lines were cultured in 5% CO2 at 37° C.

[2] = system: midkine protein; test: Inhibition of midkine protein expression (Table, FIGS. 7-12); type: cell-based; details: for Activity on protein expression: 1 uM of compound
[3] = system: endogenous midkine; test: Endogenous midkine expression in H441 cells by western blotting (FIG. 18A); type: cell-based, human; details: H441 lung adenocarcinoma cells, 10 μM, 24 hours
Protocol: FIG. 18. […] A. H441 lung adenocarcinoma cells were treated with iMDK and related compounds at a final concentration of 10 μM. Twenty-four hours after treatment, cells were harvest and protein expression was assessed using western blotting assay. […] B. Shown is structures of compounds #2 (also known as F6). #3 (also known as iMDK), #5, #7, and #8. C. […] DMSO was used as control.
(§1) Cell lines: The human malignant pulmonary mesothelioma cells MSTO-211H, H2452, H2052, H28 MESO-1 and MESO-4 were grown in RPMI 1640 supplemented with 10% heat-inactivated fetal bovine serum. The human pulmonary adenocarcinoma cells: H441 and the human embryonic kidney cells: HEK293 were grown in high glucose Dulbecco's modified Eagle supplemented with 10% heat-inactivated fetal bovine serum. All cell lines were cultured in 5% CO2 at 37° C.

[4] = system: MSTO211H mesothelioma cells; test: Cell growth, cell count with Countess II (FIGS. 14, 15); type: cell-based, human; details: 48 hours, dose-dependent, vs DMSO control
Protocol: FIG. 14. iMDK (#3) and its derivatives (A6, D9 and E6) inhibits growth of MSTO211H mesothelioma cells. MSTO211H mesothelioma cells were treated with iMDK (#3) or iMDK derivatives (A6, D9 or E6) at indicated different final concentrations.
FIG. 15. iMDK (#3) and its derivatives (F5, F6 and F7) inhibits growth of MSTO211H mesothelioma cells. MSTO211H mesothelioma cells were treated with iMDK (#3) or iMDK derivatives (F5, F6 or F7) at indicated different final concentrations.
as §1

[5] = system: MESO4 mesothelioma cells; test: Cell growth, cell count with Countess II (FIGS. 16, 17); type: cell-based, human; details: MESO4, 48 hours, dose-dependent, vs DMSO control
Protocol: FIG. 16. iMDK (#3) and its derivatives (A6, D9 and E6) inhibits growth of MESO4 mesothelioma cells. MESO4 mesothelioma cells were treated with iMDK (#3) or iMDK derivatives (A6, D9 or E6) at indicated different final concentrations.
FIG. 17. iMDK (#3) and its derivatives (F5, F6 and F7) inhibits growth of […] mesothelioma cells. MESO4 mesothelioma cells were treated with iMDK (#3) or iMDK derivatives (F5, F6 or F7) at indicated different final concentrations.
as §1

[6] = system: 293 cells; test: Cell viability, Wright-Giemsa staining (FIG. 18C), 293 cells; type: cell-based, human; details: 10 μM, 3 days after treatment
[7] = system: H441 cells; test: Cell viability / toxicity in H441 cells (FIGS. 18C, 19); type: cell-based, human; details: 10 μM, 3 days after treatment (not shown)
[8] = system: H2052 mesothelioma cells; test: Cell viability, trypan blue exclusion assay (FIG. 2), H2052; type: cell-based, human; details: H2052, 48 hours of treatment
Protocol: as §1, with “FIG. 2. iMDK suppressed cell viability of MDK expressing malignant pulmonary mesothelioma cells. […] Cell viability was assessed by trypan blue exclusion assay. Statistical significance was defined as p<0.01 (*). Cell” for “Cell”

[9] = system: MSTO-211H mesothelioma cells; test: Cell viability, trypan blue exclusion assay (FIG. 2), MSTO-211H; type: cell-based, human; details: 48 hours of treatment
Protocol: as §1, with “FIG. 2. iMDK suppressed cell viability of MDK expressing malignant pulmonary mesothelioma cells. […] Cell viability was assessed by trypan blue exclusion assay. Statistical significance was defined as p<0.01 (*). Cell” for “Cell”

[10] = system: H2452 mesothelioma cells; test: Cell viability, trypan blue exclusion assay (FIG. 2), H2452; type: cell-based, human; details: H2452, 48 hours of treatment
Protocol: as §1, with “FIG. 2. iMDK suppressed cell viability of MDK expressing malignant pulmonary mesothelioma cells. […] Cell viability was assessed by trypan blue exclusion assay. Statistical significance was defined as p<0.01 (*). Cell” for “Cell”

[11] = system: H28 mesothelioma cells; test: Cell viability, trypan blue exclusion assay (FIG. 2), H28; type: cell-based, human; details: H28, 48 hours of treatment
Protocol: as §1, with “FIG. 2. iMDK suppressed cell viability of MDK expressing malignant pulmonary mesothelioma cells. […] Cell viability was assessed by trypan blue exclusion assay. Statistical significance was defined as p<0.01 (*). Cell” for “Cell”

[12] = system: MSTO-211H cells; test: Colony formation, crystal violet staining (FIG. 3); type: cell-based, human; details: fourteen days after treatment
Protocol: as §1, with “Colony formation of MSTO-211H cells treated with iMDK. Fourteen days after the treatment, cells were fixed and stained with crystal violet. Representative images of experiments performed in triplicate are shown. Cell” for “Cell”

[13] = system: MSTO-211H cells; test: Apoptosis by TUNEL staining (FIG. 4); type: cell-based, human; details: 48 h treatment, dose dependent
Protocol: Cells were treated for 48 h at a indicated concentration of iMDK then TUNEL staining was performed to detect apoptosis using the DeadEnd colorimetric TUNEL system (Promega, Madison, WI) according to the manufacturer's protocol. Statistical significance was defined as p<0.01 (*). Cell lines: The human malignant pulmonary mesothelioma cells MSTO-211H, H2452, H2052, H28 MESO-1 and MESO-4 were grown in RPMI 1640 supplemented with 10% heat-inactivated fetal bovine serum. The human pulmonary adenocarcinoma cells: H441 and the human embryonic kidney cells: HEK293 were grown in high glucose Dulbecco's modified Eagle supplemented with 10% heat-inactivated fetal bovine serum. All cell lines were cultured in 5% CO2 at 37° C.

[14] = system: tumors derived from MSTO-211H cells; test: Malignant pleural mesothelioma xenograft mouse model (FIG. 6); type: in vivo; details: i.p., compared to control (DMSO)
Excerpt: Eight mice were used in each group. Tumor growth is expressed as mean tumor volume; bars represent SD. Statistical significance was defined as p<0.05 (#)

[15] = system: non-small cell lung cancer expressing MDK; details: previously reported; cited from earlier work
[16] = system: normal cells; details: previously reported; cited from earlier work
[17] = system: PI3 kinase/Akt pathway; details: previously reported; cited from earlier work
[18] = system: MDK expressing non-small cell lung cancer cells; details: previously reported; cited from earlier work

| Structure (SMILES) | Concentration to inhibit midkine protein expression [2] | Activity on protein expression [2] | growth of cells (number of cells) [4] | growth of cells (number of cells) [5] | other results |
| --- | --- | --- | --- | --- | --- |
| CC1(C)CCC(c2ccc(Cl)cc2)=C(CN2CCN(c3ccc(C(=O)NS(=O)(=O)c4ccc(N[C@H](CCN5CCOCC5)CSc5ccccc5)c(S(=O)(=O)C(F)(F)F)c4)cc3)CC2)C1 [ABT-263] |  |  |  |  | growth inhibition in combination with iMDK [1]: more effective than each drug alone; growth inhibition in combination with iMDK ([1]; listed as ABT263): enhanced growth inhibition |
| O=c1oc2ccccc2cc1-c1cn2cc(Cc3ccc(Cl)cc3)sc2n1 [Compound 1] | 1 µM | inhibits protein expression | significantly inhibited the growth | significantly inhibited the growth | endogenous midkine expression [3]: suppressed endogenous midkine expression; cell viability [6]: inhibited cell viability; cell viability [7]: inhibited cell viability |
| O=c1oc2ccccc2cc1-c1cn2cc(Cc3ccccc3)sc2n1 [Compound 5] | 10 µM | inhibits protein expression | significantly inhibited the growth | significantly inhibited the growth |  |
| COc1ccc(Cc2cn3cc(-c4cc5ccccc5oc4=O)nc3s2)cc1 [Compound 6] | 1 µM | inhibits protein expression | significantly inhibited the growth | significantly inhibited the growth |  |
| O=c1oc2ccccc2cc1-c1cn2cc(Cc3cccc(C(F)(F)F)c3)sc2n1 [Compound 7] | 0.1 µM |  |  |  |  |
| Cc1ccc(Cc2cn3cc(-c4cc5ccccc5oc4=O)nc3s2)cc1 [Compound 8] | 1 µM | inhibits protein expression | significantly inhibited the growth | significantly inhibited the growth |  |
| O=c1oc2ccccc2cc1-c1cn2cc(Cc3ccc(C(F)(F)F)cc3)sc2n1 [Compound 9] | 1 µM | inhibits protein expression | significantly inhibited the growth | significantly inhibited the growth |  |
| COc1ccc(-c2cn3cc(Cc4ccc(F)cc4)sc3n2)cc1 [Compound 10] | 10 µM | inhibits protein expression | significantly inhibited the growth | significantly inhibited the growth |  |
| O=c1oc2ccccc2cc1-c1cn2cc(Cc3ccc(F)cc3)sc2n1 [iMDK, 3-[2-(4-fluorobenzyl)imidazo[2,1-b][1,3]thiazol-6-yl]-2H-chromen-2-one] | 0.1 µM |  | significantly inhibited the growth | significantly inhibited the growth | endogenous midkine expression [3]: suppressed endogenous midkine expression; growth inhibition (cell viability) [8]: Dose-dependent growth inhibition; growth inhibition (cell viability) [9]: Dose-dependent growth inhibition; growth inhibition (cell viability) [10]: Dose-dependent growth inhibition; growth inhibition (cell viability) [11]: Dose-dependent growth inhibition; colony formation [12]: suppressed colony formation; apoptosis (TUNEL positive cells) [13]: induced apoptosis; also recorded: significantly increased; Volume of the tumors ([14]; iMDK 5 mg/kg): significantly reduced; Volume of the tumors ([14]; iMDK 9 mg/kg): significantly reduced; cell viability [6]: inhibited cell viability; cell viability [7]: inhibited cell viability; suppression of non-small cell lung cancer expressing MDK [15]: suppresses; harm to normal cells [16]: without harming; PI3 kinase/Akt pathway [17]: inhibits; apoptosis [18]: induces apoptosis |
